pIC50: −log10 of the molar value.

A word on the pIC50: it is the IC50 on a negative log10 scale, so that one unit is a factor of ten.

The first experiment concerns Leukotrienes (biosynthesis). As to the kind of experiment: Inhibition of leukotriene biosynthesis in vivo after oral administration, rat peritoneal anaphylaxis model. Conditions: 1 h, Oral Dose at 30 μmol/kg, gavage one hour prior to antigen challenge, read-out: Percent Inhibition of Leukotrienes. Here is the method:
Inhibition of the biosynthesis of leuktrienes in vivo after oral administration of compound was determined using a rat peritoneal anaphylaxis model in a similar manner as that described by Young and coworkers (Young, P. R.; Dyer, R. D.; Carter, G. W. Fed. Proc., Fed. Am. Soc. Exp. Biol. 1985, 44, 1185). In this model rats were injected intraperitoneally (ip) with rabbit antibody to bovine serum albumin (BSA) and three hours later injected ip with BSA to induce an antgen-antibody response. Rats were sacrificed 15 minutes after this challenge and the peritoneal fluids were collected and analyzed for leukotriene levels. Test compounds were administered by gavage one hour prior to the antigen challenge. Percent inhibition values were determined by comparing the treatment group to the mean of the control group.
Take `NC(=O)N(O)CC#Cc1cccc(Oc2cccnc2)c1` [Example 54, N-Hydroxy-N-[3-[3-(3-pyridinyloxy)phenyl]-2-propyn-1-yl]urea]: the inhibition in vivo at 30 µmol/kg is 78%.

Regarding `NC(=O)N(O)CC#Cc1ccc(Oc2ccc(F)cc2)o1` [Example 60, N-hydroxy-N-{3-[5-(4-fluorophenoxy)-2-furyl]-2-propynyl}urea], the inhibition in vivo at 30 µmol/kg is 70%.

`NC(=O)N(O)CC#Cc1cccc(Oc2ccccn2)c1` [Example 63, N-Hydoxy-N-[3-[3-(2-pyridinyloxy)phenyl]-2-propyn-1-yl]urea]: the inhibition in vivo at 30 µmol/kg turned out to be 85%.

The experiment is the same for the next values; noted with them: 1 h, Oral Dose at 100 μmol/kg, gavage one hour prior to antigen challenge, read-out: Percent Inhibition of Leukotrienes.
With `CC(C#Cc1ccc(Cl)cc1)N(O)C(N)=O` (stereo not shown) [Example 19, N-Hydroxy-N-[4-(4-chlorophenyl)-3-butyn-2-yl]urea], the inhibition in vivo at 100 µmol/kg was 82%.

In the case of `CNC(=O)N(O)C(C)C#Cc1ccc(Cl)cc1` (stereo not shown) [Example 20, N-Hydroxy-N-[4-(4-chlorophenyl)-3-butyn-2-yl]-N'-methylurea], the inhibition in vivo at 100 µmol/kg stood at 89%.

As to `NC(=O)N(O)CC#CCOc1cccc(Oc2ccccc2)c1` [Example 38, N-Hydroxy-N-[4-(3-phenoxyphenoxy)-2-butynyl]urea], the inhibition in vivo at 100 µmol/kg is 100%.

Consider `NC(=O)N(O)CC#CCOc1cccc(Oc2cccnc2)c1` [Example 49], for which the inhibition in vivo at 100 µmol/kg came out at 98%.

Staying with this experiment, now noted: 1 h, Oral Dose at 200 μmol/kg, gavage one hour prior to antigen challenge, read-out: Percent Inhibition of Leukotrienes.
For `CC(C#Cc1ccccc1)N(O)C(N)=O` (stereo not shown) [Example 1, N-Hydroxy-N(4-phenyl-3-butyn-2-yl)urea], the inhibition in vivo at 200 µmol/kg worked out at 98%.

On to `COc1ccc2cc(C#CC(C)N(O)C(N)=O)ccc2c1` (stereo not shown) [Example 2, N-Hydroxy-N-[4-(6-methoxynaphth-2-yl)-3-butyn-2-yl]urea], for which the inhibition in vivo at 200 µmol/kg came to 66%.

As to `CC(C#CCSc1ccccc1)N(O)C(N)=O` (stereo not shown) [Example 4, N-Hydroxy-N-(5phenylthio-3-pentyn-2-yl)urea], the inhibition in vivo at 200 µmol/kg was determined as 64%.

With `CC(C#CC1CCCCC1)N(O)C(N)=O` (stereo not shown) [Example 8, N-Hydroxy-N-[4-cyclohexyl-3-butyn-2-yl]urea], the inhibition in vivo at 200 µmol/kg is 41%.

In the case of `CC(C#CCOc1ccccc1)N(O)C(N)=O` (stereo not shown) [Example 10, N-Hydroxy-N-(5-phenoxy-3-pentyn-2-yl)urea], the inhibition in vivo at 200 µmol/kg worked out at 99%.

For `CC(C#CCCCc1ccccc1)N(O)C(N)=O` (stereo not shown) [Example 11, N-Hydroxy,N-(7-phenyl-3-heptyn-2-yl)urea], the inhibition in vivo at 200 µmol/kg was 99%.

For the compound `CC(C#Cc1ccc(Br)cc1)N(O)C(N)=O` (stereo not shown) [Example 17, N-Hydroxy-N-[4-(4-bromophenyl)-3-butyn-2-yl]urea], the inhibition in vivo at 200 µmol/kg was 98%.

A further experiment concerns the target T1, 5-Lipoxygenase from RBL-1 20,000xg Supernatant (Rattus norvegicus, UniProt P12527).
T1 construct: 20,000 xg supernatant from 1.5 million homogenized RBL-1 cells; endogenous in cells; host or cells: RBL-1 cells (20,000 xg supernatant of homogenate)
T1 sequence (P12527 1-673): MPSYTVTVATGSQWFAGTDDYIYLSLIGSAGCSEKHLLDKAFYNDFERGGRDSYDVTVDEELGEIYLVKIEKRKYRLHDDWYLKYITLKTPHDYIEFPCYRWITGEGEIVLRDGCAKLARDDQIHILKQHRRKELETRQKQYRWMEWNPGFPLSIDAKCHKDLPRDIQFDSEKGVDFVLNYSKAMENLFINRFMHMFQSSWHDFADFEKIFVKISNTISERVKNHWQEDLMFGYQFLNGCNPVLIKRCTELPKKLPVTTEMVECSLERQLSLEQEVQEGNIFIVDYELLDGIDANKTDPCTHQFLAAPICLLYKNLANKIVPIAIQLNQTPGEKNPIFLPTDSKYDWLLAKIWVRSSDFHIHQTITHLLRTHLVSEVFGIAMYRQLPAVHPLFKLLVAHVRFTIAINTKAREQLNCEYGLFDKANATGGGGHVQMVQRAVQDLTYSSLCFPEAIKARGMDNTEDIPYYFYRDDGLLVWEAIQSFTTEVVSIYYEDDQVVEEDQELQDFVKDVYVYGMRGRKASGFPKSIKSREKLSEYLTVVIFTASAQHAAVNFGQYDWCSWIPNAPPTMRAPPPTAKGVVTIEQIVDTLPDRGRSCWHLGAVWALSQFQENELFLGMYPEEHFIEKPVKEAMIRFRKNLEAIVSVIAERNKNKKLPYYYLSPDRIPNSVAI
As to the kind of experiment: 5-lipoxygenase inhibitory activity, 20,000 xg supernatant from homogenized RBL-1 cells. The class given is biochemical. Conditions: radiolabeled arachidonic acid, triplicate. Here is the method:
Assays to determine 5-lipoxygenase inhibitory activity of representative compounds of the present invention were performed in […] incubations containing the 20,000 xg supernatant from 1.5 million homogenized RBL-1 cells and various concentrations of the test compound. Reactions were initiated by addition of radiolabeled arachidonic acid and terminated by acidification and ether extraction. Reaction products were separated from nonconverted substrate by thin layer chromatography and measured by liquid scintillation spectroscopy. All incubations are performed in triplicate. Inhibition of 5-lipoxygenase activity was calculated as the ratio of the amount of product formed in the presence and absence of inhibitor. […] (Dyer, R. D.; Haviv, F.; Hanel, A. M.; Bornemier, D. A.; Carter, G. W. Fed. Proc., Fed. Am. Soc. Exp. Biol. 1984, 43, 1462A).
The compound `CC(C#Cc1ccccc1)N(O)C(N)=O` (stereo not shown) [Example 1, N-Hydroxy-N(4-phenyl-3-butyn-2-yl)urea] had a pIC50 of 5.62.

`CC(C#Cc1cccc(Oc2ccccc2)c1)N(O)C(N)=O` (stereo not shown) [Example 3, N-Hydroxy-N-[4-(3-phenoxyphenyl)-3-butyn-2-yl]urea] had a pIC50 of 7.00.

`CC(C#CCSc1ccccc1)N(O)C(N)=O` (stereo not shown) [Example 4, N-Hydroxy-N-(5phenylthio-3-pentyn-2-yl)urea] gave a pIC50 of 6.40.

`CC(C#CCN(C)Cc1ccccc1)N(O)C(N)=O` (stereo not shown) [Example 5, N-Hydroxy-N-[5-[(N-methyl-N-benzyl)amino]-3-pentyn,2-yl]urea]: the pIC50 was 5.44.

`CC(C#Cc1cccc(OCc2ccccc2)c1)N(O)C(N)=O` (stereo not shown) [Example 6, N-Hydroxy-N-[4-(3-benzyloxyphenyl)-3-butyn-2-yl]urea] had a negative-log IC50 (pIC50) of 6.70.

As for `CC(C#Cc1ccc(OCc2ccccc2)cc1)N(O)C(N)=O` (stereo not shown) [Example 7, N-Hydroxy-N-[4-(4-benzyloxyphenyl)-3-butyn-2-yl]urea], the pIC50 is 6.89.

In turn, `CC(C#CC1CCCCC1)N(O)C(N)=O` (stereo not shown) [Example 8, N-Hydroxy-N-[4-cyclohexyl-3-butyn-2-yl]urea] had a pIC50 of 5.72.

The compound `CC(C#CC1=CCCCC1)N(O)C(N)=O` (stereo not shown) [Example 9, N-Hydroxy-N-(4-cyclohexen-1-yl-3butyn-2-yl)urea] showed a pIC50 of 5.92.

`CC(C#CCCCc1ccccc1)N(O)C(N)=O` (stereo not shown) [Example 11, N-Hydroxy,N-(7-phenyl-3-heptyn-2-yl)urea]: the negative logarithm of the IC50 (pIC50) is 6.15.

Take `CC(C#Cc1ccc(Oc2ccccc2)cc1)N(O)C(N)=O` (stereo not shown) [Example 12, N-Hydroxy-N[4-(4-phenoxyphenyl)-3-butyn-2-yl]urea]: the pIC50 is 6.52.

`CCCCc1ccc(C#CC(C)N(O)C(N)=O)s1` (stereo not shown) [Example 13, N-Hydroxy-N-[4-(5-butylthien-2-yl)-3-butyn-2-yl]urea] gave a negative-log IC50 (pIC50) of 6.52.

In turn, `Cc1ccc(C#CC(C)N(O)C(N)=O)s1` (stereo not shown) [Example 14, N-Hydroxy-N-[4-(5,methylthien-2-yl)-3-butyn-2-y]urea] showed a pIC50 of 5.77.

`CNC(=O)N(O)C(C)C#Cc1ccccc1` (stereo not shown) [Example 15, N-Hydroxy-N-(4-phenyl-3-butyn-2-yl)-N'-methylurea] gave a pIC50 of 5.48.

`CC(C#Cc1cc2ccccc2s1)N(O)C(N)=O` (stereo not shown) [Example 16, N-Hydroxy-N-[4-(2-benzo[b]thienyl)-3-butyn-2-yl]urea] gave a pIC50 of 7.00.

The compound `CC(C#Cc1ccc(Br)cc1)N(O)C(N)=O` (stereo not shown) [Example 17, N-Hydroxy-N-[4-(4-bromophenyl)-3-butyn-2-yl]urea] gave a pIC50 of 6.10.

Compound `CNC(=O)N(O)C(C)C#Cc1ccc(Br)cc1` (stereo not shown) [Example 18, N-Hydroxy-N-[4-(4-bromophenyl)-3-butyn-2-yl]-N'-methylurea] had a pIC50 of 6.30.

`CC(C#Cc1ccc(Cl)cc1)N(O)C(N)=O` (stereo not shown) [Example 19, N-Hydroxy-N-[4-(4-chlorophenyl)-3-butyn-2-yl]urea] gave a pIC50 of 6.40.

In turn, `CNC(=O)N(O)C(C)C#Cc1ccc(Cl)cc1` (stereo not shown) [Example 20, N-Hydroxy-N-[4-(4-chlorophenyl)-3-butyn-2-yl]-N'-methylurea] showed a pIC50 of 5.96.

Regarding `CNC(=O)N(O)C(C)C#Cc1ccc(C(C)C)cc1` (stereo not shown) [Example 23, N-Hydroxy-N-[4-[4-(1-methylethyl)phenyl]-3-butyn-2-yl]-N'-methylurea], the pIC50 was 6.30.

As for `CCc1ccc(C#CC(C)N(O)C(N)=O)cc1` (stereo not shown) [Example 24, N-Hydroxy-N-[4-(4-ethylphenyl)-3-butyn-2-yl]urea], the pIC50 was 6.52.

Turning to `CNC(=O)N(O)C(C)C#CCCc1ccccc1` (stereo not shown) [Example 27, N-Hydroxy-N-(6-phenyl-3-hexyn-2-yl)-N'-methylurea], the pIC50 is 6.15.

`Cc1ccc(C#CC(C)N(O)C(N)=O)cc1` (stereo not shown) [Example 28, N-Hydroxy-N-[4-(4-methylphenyl)-3-butyn-2-yl]urea]: the pIC50 is 5.85.

Take `CNC(=O)N(O)C(C)C#Cc1ccc(C)cc1` (stereo not shown) [Example 29, N-Hydroxy-N-[4-(4-methylphenyl)-3-butyn-2-yl]-N'-methylurea]: the pIC50 is 6.10.

Compound `CC(C#Cc1ccco1)N(O)C(N)=O` (stereo not shown) [Example 31, N-Hydroxy-N-[4-(2-furyl)-3-butyn-2-yl]urea] had a pIC50 of 5.21.

As to `Cc1ccc(Oc2cccc(C#CC(C)N(O)C(N)=O)c2)cc1` (stereo not shown) [Example 35, N-Hydroxy-N-[4-[3-(4-methylphenoxy)phenyl]-3-butyn-2-yl]urea], the pIC50 is 6.40.

As for `COc1ccc(C#CC(C)N(O)C(N)=O)cc1` (stereo not shown) [Example 37, N-Hydroxy-N-[4-(4-methoxyphenyl)-3-butyn-2-yl]urea], the pIC50 is 5.70.

`COc1ccc(Oc2cccc(C#CC(C)N(O)C(N)=O)c2)cc1` (stereo not shown) [Example 40, N-Hydroxy-N-[4-[3-(4-methoxyphenoxy)phenyl]-3-butyn-2-yl]urea] showed a pIC50 of 6.30.

`NC(=O)N(O)CC#CCOc1ccccc1` [Example 41, N-Hydroxy-N-(4-phenoxy-2-butynyl)urea] had a pIC50 of 5.46.

In turn, `CC(C#CCOc1cccc(Oc2ccccc2)c1)N(O)C(N)=O` (stereo not shown) [Example 45, N-Hydroxy-N-[5-(3-phenoxyphenoxy)-3-pentyn-2-yl]urea] had a pIC50 of 6.70.

In the case of `CC(C#CCCc1cccc(Oc2ccccn2)c1)N(O)C(N)=O` (stereo not shown) [Example 55, N-Hydroxy-N-[6-[3-(2-pyridinyloxy)phenyl]-3-hexyn-2-yl,1]-urea], the pIC50 is 6.05.

`CNC(=O)N(O)C(C)C#Cc1cccc(Oc2ccccn2)c1` (stereo not shown) [Example 56, N-Hydroxy-N-[4-[3-(2-pyridinyloxy)phenyl]-3-butyn-2-yl]-N'-methylurea] gave a pIC50 of 6.52.

Consider `COc1cccc(Oc2cccc(C#CC(C)N(O)C(N)=O)c2)n1` (stereo not shown) [Example 65, N-Hydroxy-N-[4-[3-(6-methoxypyridin-2-yloxy)phenyl]-3-butyn-2-yl]urea], for which the pIC50 is 6.70.

Source of the values: patent publication US5559144A, “Furyl and thienyl alkynyl-N-hydroxy urea derivatives” (Abbott Laboratories, priority 1995, dated 1996).
